Assay results: ChEMBL document CHEMBL4765472, “Tenofovir-Amino Acid Conjugates Act as Polymerase Substrates-Implications for Avoiding Cellular Phosphorylation in the Discovery of Nucleotide Analogues” (J Med Chem, 2021)
Active and inactive are the calls of the source. No cut-off for these calls is given here.

Experiments:
[1] = system: Human immunodeficiency virus 1; assay: Inhibition of HIV1 reverse transcriptase assessed as reduction in dsDNA synthesis at 2.5 mM incubated for 1 hr by PicoGreen-based spectrophotometric assay
[2] = system: Human immunodeficiency virus 1; assay: Substrate activity at HIV1 reverse transcriptase assessed as incorporation of compound into growing DNA strand at 1 mM incubated for 1 hr using primer and template in presence of MnCl2 by gel based nucleotide incorporation assay
[3] = system: Human immunodeficiency virus 1; assay: Substrate activity at HIV1 reverse transcriptase assessed as incorporation of compound into growing DNA strand at 500 uM incubated for 1 hr using primer and template in presence of MnCl2 by gel based nucleotide incorporation assay
[4] = system: Human immunodeficiency virus 1; assay: Substrate activity at HIV1 reverse transcriptase assessed as incorporation of compound into growing DNA strand at 500 uM incubated for 1 hr using primer and template in presence of MgCl2 by gel based nucleotide incorporation assay
[5] = system: Human immunodeficiency virus 1; assay: Substrate activity at HIV1 reverse transcriptase assessed as incorporation of compound into growing DNA strand at 500 to 1000 uM incubated for 1 hr using primer and template in presence of MgCl2 by gel based nucleotide incorporation assay; settings: dose 500-1000 µM
[6] = system: Human immunodeficiency virus 1; assay: Substrate activity at HIV1 reverse transcriptase assessed as incorporation of compound into growing DNA strand at 500 to 1000 uM incubated for 1 hr using primer and template in presence of MnCl2 by gel based nucleotide incorporation assay; settings: dose 500-1000 µM
[7] = Inhibition of HIV1 reverse transcriptase assessed as reduction in dsDNA synthesis incubated for 1 hr by PicoGreen-based spectrophotometric assay; parameters: species or system Human immunodeficiency virus 1

inhibition (active/not active) [1]	Activity [2]	Activity [4]	Activity [5]	Activity [6]	SMILES	other results
inactive	Active				C[C@H](Cn1cnc2c(N)ncnc21)OCP(=O)(O)N[C@@H](Cc1ccccc1)C(=O)O	
inactive		26.8%			C[C@H](Cn1cnc2c(N)ncnc21)OCP(=O)(O)N[C@@H](CCC(=O)O)C(=O)O	Activity [3]: 40.8%
inactive			Active	Active	Nc1ncnc2c1ncn2[C@H]1C[C@H](O)[C@@H](COP(=O)(O)N[C@@H](CC(=O)O)C(=O)O)O1	
inactive			inactive	inactive	Nc1ncnc2c1ncn2[C@H]1C[C@H](O)[C@@H](COP(=O)(O)N[C@@H](Cc2ccccc2)C(=O)O)O1	
		Active			Nc1ncnc2c1ncn2[C@H]1C[C@H](O)[C@@H](COP(=O)(O)O)O1	
inactive	Active				C[C@H](Cn1cnc2c(N)ncnc21)OCP(=O)(O)N[C@@H](Cc1c[nH]cn1)C(=O)O	
inactive			inactive	inactive	N=C(N)NCCC[C@H](NP(=O)(O)OC[C@H]1O[C@@H](n2cnc3c(N)ncnc32)C[C@@H]1O)C(=O)O	
inactive			inactive	inactive	CSCC[C@H](NP(=O)(O)OC[C@H]1O[C@@H](n2cnc3c(N)ncnc32)C[C@@H]1O)C(=O)O	
		inactive			C[C@H](Cn1cnc2c(N)ncnc21)OCP(=O)(O)O	
inactive		Active			C[C@H](Cn1cnc2c(N)ncnc21)OCP(=O)(O)N[C@H](CC(=O)O)C(=O)O	
inactive	inactive				C[C@H](Cn1cnc2c(N)ncnc21)OCP(=O)(O)N[C@@H](CCCNC(=N)N)C(=O)O	
inactive	Active				C[C@H](Cn1cnc2c(N)ncnc21)OCP(=O)(O)N[C@@H](CC(=O)O)C(=O)O	
Active					CSCC[C@H](NP(=O)(O)CO[C@H](C)Cn1cnc2c(N)ncnc21)C(=O)O	IC50 [7]: 146 µM
